# Reference: ChEMBL document CHEMBL1201862, “PubChem BioAssay data set” (2004)
# The source made the active and inactive calls.
# Key:
# Coagulation factor XII = target: T1, Coagulation factor XII (Homo sapiens, UniProt P00748); format: functional;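 note: activated factor XIIa alpha cleaving a fluorogenic AMC peptide substrate; inhibitor potency from loss of enzyme activity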
# T1 sequence (P00748 whole entry): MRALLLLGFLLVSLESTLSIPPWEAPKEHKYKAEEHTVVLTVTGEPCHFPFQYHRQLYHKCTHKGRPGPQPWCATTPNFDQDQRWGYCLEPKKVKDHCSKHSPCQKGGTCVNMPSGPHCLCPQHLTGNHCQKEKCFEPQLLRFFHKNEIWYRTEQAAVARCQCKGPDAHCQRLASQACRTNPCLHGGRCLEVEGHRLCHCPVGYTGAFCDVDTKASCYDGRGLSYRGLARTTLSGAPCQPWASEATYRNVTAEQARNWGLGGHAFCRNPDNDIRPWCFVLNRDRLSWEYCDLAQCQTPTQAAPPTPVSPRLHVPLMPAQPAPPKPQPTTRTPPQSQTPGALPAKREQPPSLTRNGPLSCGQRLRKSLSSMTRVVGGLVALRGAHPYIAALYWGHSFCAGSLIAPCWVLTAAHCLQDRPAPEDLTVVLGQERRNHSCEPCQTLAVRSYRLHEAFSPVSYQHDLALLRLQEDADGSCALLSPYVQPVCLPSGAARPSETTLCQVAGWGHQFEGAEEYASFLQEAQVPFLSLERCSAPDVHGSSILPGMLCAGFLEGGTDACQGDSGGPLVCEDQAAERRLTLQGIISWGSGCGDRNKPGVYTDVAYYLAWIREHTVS
# [1] = test system: Streptococcus sp. 'group A'; test: growth inhibition of control SK(-) GAS strain, dose response, counter-screen for streptokinase expression inhibitor project, luminescence, kanamycin, BacTiterGlo, confirmation (AID 1900); format: functional, organism-based
# Streptokinase A = target: T2, Streptokinase A (Streptococcus pyogenes serotype M1, UniProt P10520); test: S. pyogenes streptokinase expression inhibitors, potency, dose response, plasminogen activation absorbance, OD405 (AID 1914); format: functional, Streptococcus pyogenes M1 GAS;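 note: secreted streptokinase activity via plasminogen activation per viability signal from cell pellet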
# T2 sequence (P10520 whole entry): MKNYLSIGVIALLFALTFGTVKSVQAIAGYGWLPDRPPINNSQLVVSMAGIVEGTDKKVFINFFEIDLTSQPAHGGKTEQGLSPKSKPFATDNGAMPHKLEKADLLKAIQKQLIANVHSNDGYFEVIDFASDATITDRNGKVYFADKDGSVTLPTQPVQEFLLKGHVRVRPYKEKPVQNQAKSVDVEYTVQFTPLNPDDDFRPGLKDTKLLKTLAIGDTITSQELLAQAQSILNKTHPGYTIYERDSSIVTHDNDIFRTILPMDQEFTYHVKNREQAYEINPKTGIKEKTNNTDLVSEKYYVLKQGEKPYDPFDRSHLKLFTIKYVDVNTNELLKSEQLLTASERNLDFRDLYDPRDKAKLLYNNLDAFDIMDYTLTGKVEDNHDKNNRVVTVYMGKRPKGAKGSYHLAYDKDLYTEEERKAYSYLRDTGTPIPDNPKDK
# [2] = inhibitors of intracellular T. cruzi replication, confirmation, NIH3T3 host cells, beta-gal luminescence (AID 2044); format: functional, cell-based;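 note: intracellular parasites grown in NIH/3T3 mouse fibroblasts as host cells; luminescent beta-galactosidase reporter signal from transgenic T. cruzi replicating inside host cells; inhibitors lower the luminescence signal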
# [3] = target: T3, Calpain-2 catalytic subunit (Sus scrofa, UniProt P43367); test: pig calpain II inhibitor potency, dose response, biochemical, fluorogenic peptide substrate (AID 1420); format: functional
# T3 sequence (P43367 whole entry): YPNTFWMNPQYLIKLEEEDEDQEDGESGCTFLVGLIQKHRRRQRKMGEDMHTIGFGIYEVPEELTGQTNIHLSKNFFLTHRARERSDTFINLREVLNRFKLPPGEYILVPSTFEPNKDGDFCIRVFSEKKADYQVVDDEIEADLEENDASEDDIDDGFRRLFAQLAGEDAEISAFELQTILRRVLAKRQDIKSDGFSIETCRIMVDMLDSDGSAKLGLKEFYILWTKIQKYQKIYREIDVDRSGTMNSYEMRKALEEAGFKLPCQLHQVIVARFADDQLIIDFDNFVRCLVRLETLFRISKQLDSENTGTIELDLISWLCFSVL
# [4] = cytotoxicity toward NIH3T3 fibroblasts, dose response, counter-screen, cell-based, ATP luminescence, mouse fibroblasts (AID 2010); format: functional;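 note: cells exposed to compound for about 90 hours before reading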
# Streptococcus = test: Group A Streptococcus viability loss, dose response, counter-screen for streptokinase expression inhibitor project, luminescence, BacTiterGlo (AID 1915); format: functional, organism-based;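 note: potency for reduction of bacterial viability or growth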
# [5] = target: Peroxisome proliferator-activated receptor gamma/Nuclear receptor coactivator 1 (Homo sapiens, UniProt P37231); test: (§1) TR-FRET dose response biochemical High Throughput Screening assay for agonists of the steroid receptor coactivator 1 (SRC-1) recruitment by the peroxisome proliferator-activated receptor gamma (PPAR gamma): non-selective agonists. [Related pubchem assays (depositor defined):AID1300, AID1808, AID504735, AID631]; format: protein assay
# [6] = target: Peroxisome proliferator-activated receptor gamma/Nuclear receptor coactivator 3 (Homo sapiens, UniProt P37231); test: as §1, with “3 (SRC-3)” for “1 (SRC-1)”, “assays: 1301 (Confirmation screen.), 1048 (Primary screen.)]” for “assays (depositor defined):AID1300, AID1808, AID504735, AID631]”; format: functional
# [7] = target: Peroxisome proliferator-activated receptor gamma/Nuclear receptor coactivator 2 (Homo sapiens, UniProt P37231); test: TR-FRET dose response biochemical High Throughput Screening assay for agonists of the steroid receptor coactivator 2 (SRC-2) recruitment by the peroxisome proliferator-activated receptor gamma (PPAR gamma): non-selective agonists. [Related pubchem assays: 1297, 1032 ]; format: functional
# Leucine aminopeptidase = target: T4, Leucine aminopeptidase (Plasmodium falciparum 3D7, UniProt Q8IL11); test: P. falciparum M17LAP inhibitors, primary screen, biochemical, fluorogenic H-Leu-NHMec substrate, 1536-well (AID 1619); format: functional
# T4 sequence (Q8IL11 whole entry): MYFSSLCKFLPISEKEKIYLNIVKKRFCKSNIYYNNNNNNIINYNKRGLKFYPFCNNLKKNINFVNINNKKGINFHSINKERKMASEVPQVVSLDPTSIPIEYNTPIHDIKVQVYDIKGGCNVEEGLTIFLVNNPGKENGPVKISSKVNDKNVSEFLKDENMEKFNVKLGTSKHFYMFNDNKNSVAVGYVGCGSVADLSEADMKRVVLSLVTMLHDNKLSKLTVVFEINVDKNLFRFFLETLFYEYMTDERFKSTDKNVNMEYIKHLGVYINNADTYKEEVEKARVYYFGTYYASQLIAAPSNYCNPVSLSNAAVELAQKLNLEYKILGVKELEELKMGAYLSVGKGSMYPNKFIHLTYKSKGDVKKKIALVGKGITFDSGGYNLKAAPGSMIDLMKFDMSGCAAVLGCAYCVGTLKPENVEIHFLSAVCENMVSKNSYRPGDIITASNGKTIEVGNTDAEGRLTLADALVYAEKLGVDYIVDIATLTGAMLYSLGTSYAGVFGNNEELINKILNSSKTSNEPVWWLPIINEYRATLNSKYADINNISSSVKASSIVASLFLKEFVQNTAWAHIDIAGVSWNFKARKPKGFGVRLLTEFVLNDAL
# [8] = cytotoxicity in HPDE-C7 cells, cell-based, fluorescence, HTS (AID 430); format: functional; details: Homo sapiens
# [9] = cytotoxicity in KRAS-transformed pancreatic duct cells, primary screen, cell-based, fluorescence, HTS (AID 431); format: functional; details: Homo sapiens;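 note: cell line used: HPDE-C7K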
# Trypsin = Trypsin (Sus scrofa, UniProt P00761); test: porcine trypsin inhibitors, dose response, selectivity assay for Rce1 protease inhibitor project, biochemical, quenched peptide fluorescence, cherry-pick (AID 488789)
# CAAX prenyl protease 2 = target: T5, CAAX prenyl protease 2 (Saccharomyces cerevisiae S288c, UniProt Q03530); format: biochemical
# T5 sequence (Q03530 whole entry): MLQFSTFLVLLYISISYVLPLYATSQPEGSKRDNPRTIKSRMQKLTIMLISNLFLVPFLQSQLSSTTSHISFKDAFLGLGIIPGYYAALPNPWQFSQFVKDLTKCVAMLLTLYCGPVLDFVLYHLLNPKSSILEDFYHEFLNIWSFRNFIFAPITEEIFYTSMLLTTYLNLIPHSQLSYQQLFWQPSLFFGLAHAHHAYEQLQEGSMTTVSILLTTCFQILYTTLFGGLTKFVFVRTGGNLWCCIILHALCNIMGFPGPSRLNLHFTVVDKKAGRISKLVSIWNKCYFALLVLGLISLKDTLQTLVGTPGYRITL
# [10] = target: Eukaryotic translation initiation factor 4E (Mus musculus, UniProt P63073); test: eIF4E–eIF4G protein interaction inhibitors, dose response, biochemical, TR-FRET (AID 855); format: functional;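 note: potency for disrupting eIF4E binding to eIF4GI seen as loss of FRET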
# [11] = target: Voltage-dependent T-type calcium channel subunit alpha-1H (Homo sapiens, UniProt O95180); format: functional;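 note: channel activity triggered by adding a high calcium stimulation buffer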
# [12] = A Cell Based Secondary Assay To Explore Cytotoxicity of Compounds that Sensitize Mycobacterium Tuberculosis to Beta-Lactam Antibiotics.; format: functional
# [13] = Vero cell cytotoxicity, dose response, cytotoxicity control for Vif-APOBEC3G degradation inhibitor project, Vero cells (AID 1117358); format: functional; details: Human immunodeficiency virus 1, Vero
# Prothrombin = Prothrombin (Homo sapiens, UniProt P00734); test: Thrombin 1536 HTS Dose Response Confirmation. [Related pubchem assays: 1046 (Thrombin 1536 HTS; hits were confirmed in this assay)]; format: functional
# Voltage-dependent T-type calcium channel subunit alpha-1H, sequence (O95180 whole entry): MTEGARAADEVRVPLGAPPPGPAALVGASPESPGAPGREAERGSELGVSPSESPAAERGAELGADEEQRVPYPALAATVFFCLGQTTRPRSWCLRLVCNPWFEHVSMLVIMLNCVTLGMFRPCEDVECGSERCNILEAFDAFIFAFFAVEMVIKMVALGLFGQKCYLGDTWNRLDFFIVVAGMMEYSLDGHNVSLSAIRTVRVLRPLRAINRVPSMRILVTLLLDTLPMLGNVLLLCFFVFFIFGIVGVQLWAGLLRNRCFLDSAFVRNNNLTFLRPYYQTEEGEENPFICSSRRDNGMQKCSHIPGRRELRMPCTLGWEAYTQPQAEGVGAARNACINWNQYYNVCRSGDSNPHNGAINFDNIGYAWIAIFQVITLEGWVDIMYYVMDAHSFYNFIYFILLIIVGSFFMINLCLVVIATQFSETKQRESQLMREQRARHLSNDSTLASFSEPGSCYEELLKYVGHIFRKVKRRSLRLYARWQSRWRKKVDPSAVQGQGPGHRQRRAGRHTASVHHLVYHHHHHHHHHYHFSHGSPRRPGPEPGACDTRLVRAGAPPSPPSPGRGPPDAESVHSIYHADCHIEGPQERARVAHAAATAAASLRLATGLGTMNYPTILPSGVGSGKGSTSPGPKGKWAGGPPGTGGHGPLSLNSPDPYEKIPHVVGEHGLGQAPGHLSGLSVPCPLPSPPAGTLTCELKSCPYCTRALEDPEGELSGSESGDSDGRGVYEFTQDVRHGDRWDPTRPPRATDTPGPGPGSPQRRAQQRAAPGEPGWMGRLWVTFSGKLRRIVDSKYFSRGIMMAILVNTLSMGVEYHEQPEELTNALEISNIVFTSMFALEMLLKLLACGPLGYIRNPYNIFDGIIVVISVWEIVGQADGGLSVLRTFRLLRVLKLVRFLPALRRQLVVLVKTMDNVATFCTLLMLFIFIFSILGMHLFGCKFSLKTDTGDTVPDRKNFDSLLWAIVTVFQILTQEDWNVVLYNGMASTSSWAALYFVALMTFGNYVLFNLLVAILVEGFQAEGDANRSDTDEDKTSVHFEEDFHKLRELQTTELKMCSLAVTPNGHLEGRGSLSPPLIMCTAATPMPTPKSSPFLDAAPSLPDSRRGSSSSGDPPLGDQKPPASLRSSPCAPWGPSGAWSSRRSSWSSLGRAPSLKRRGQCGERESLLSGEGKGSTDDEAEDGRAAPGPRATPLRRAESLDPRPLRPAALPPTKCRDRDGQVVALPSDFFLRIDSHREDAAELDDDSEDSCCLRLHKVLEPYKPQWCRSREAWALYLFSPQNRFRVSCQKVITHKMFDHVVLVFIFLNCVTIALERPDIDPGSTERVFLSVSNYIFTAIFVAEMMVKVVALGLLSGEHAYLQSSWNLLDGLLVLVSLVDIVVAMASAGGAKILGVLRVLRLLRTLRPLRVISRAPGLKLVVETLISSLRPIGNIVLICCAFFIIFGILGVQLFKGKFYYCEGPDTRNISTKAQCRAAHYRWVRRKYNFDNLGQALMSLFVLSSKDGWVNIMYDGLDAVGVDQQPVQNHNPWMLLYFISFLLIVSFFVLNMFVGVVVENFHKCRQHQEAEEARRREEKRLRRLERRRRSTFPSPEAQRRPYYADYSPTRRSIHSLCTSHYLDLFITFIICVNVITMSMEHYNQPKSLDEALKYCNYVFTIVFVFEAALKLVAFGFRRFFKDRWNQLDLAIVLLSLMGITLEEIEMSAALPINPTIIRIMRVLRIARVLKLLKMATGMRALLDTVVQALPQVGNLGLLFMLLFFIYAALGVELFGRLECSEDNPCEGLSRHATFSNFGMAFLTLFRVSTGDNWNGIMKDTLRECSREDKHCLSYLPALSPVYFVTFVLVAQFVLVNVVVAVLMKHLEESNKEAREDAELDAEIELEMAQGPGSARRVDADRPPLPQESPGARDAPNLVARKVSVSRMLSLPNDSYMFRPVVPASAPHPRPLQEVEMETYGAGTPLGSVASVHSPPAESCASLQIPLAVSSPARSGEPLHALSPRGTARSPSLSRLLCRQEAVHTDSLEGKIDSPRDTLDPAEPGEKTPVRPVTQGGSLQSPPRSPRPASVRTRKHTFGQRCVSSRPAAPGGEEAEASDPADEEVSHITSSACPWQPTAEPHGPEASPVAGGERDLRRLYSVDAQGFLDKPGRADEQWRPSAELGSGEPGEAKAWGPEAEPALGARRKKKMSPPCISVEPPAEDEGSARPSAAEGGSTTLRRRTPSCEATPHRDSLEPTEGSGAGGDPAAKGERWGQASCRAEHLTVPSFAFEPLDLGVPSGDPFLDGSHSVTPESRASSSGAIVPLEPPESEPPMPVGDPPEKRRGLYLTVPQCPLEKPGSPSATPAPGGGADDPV
# Trypsin, sequence (P00761 whole entry): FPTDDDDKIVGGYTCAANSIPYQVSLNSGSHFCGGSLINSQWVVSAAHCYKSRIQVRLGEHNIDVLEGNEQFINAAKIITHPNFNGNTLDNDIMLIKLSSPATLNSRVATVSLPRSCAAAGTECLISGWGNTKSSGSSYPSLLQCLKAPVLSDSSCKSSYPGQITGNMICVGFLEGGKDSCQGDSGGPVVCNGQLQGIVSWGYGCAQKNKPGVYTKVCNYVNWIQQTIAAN
# Eukaryotic translation initiation factor 4E, sequence (P63073 whole entry): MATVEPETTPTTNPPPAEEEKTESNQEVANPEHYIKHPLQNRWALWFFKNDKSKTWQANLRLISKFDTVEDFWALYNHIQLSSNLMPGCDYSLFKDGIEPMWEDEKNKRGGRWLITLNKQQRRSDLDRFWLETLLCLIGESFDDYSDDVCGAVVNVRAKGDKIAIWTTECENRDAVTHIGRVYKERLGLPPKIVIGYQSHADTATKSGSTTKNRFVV
# Peroxisome proliferator-activated receptor gamma/Nuclear receptor coactivator 2, sequence (P37231 whole entry): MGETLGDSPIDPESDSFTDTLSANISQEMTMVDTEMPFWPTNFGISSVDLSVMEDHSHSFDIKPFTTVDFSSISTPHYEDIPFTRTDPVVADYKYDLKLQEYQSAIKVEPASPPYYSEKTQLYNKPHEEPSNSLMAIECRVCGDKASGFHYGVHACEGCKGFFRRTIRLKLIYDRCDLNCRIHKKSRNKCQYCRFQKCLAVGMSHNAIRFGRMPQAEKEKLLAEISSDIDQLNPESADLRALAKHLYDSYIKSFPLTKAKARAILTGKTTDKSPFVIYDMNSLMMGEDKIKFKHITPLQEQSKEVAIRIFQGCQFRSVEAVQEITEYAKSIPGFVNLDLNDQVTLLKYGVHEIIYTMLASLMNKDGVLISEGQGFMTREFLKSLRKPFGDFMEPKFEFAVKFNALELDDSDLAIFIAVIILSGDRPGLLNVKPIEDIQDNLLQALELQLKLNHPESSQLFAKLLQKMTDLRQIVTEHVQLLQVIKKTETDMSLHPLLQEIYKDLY
# Peroxisome proliferator-activated receptor gamma/Nuclear receptor coactivator 2, sequence (Q15596 whole entry, further chain): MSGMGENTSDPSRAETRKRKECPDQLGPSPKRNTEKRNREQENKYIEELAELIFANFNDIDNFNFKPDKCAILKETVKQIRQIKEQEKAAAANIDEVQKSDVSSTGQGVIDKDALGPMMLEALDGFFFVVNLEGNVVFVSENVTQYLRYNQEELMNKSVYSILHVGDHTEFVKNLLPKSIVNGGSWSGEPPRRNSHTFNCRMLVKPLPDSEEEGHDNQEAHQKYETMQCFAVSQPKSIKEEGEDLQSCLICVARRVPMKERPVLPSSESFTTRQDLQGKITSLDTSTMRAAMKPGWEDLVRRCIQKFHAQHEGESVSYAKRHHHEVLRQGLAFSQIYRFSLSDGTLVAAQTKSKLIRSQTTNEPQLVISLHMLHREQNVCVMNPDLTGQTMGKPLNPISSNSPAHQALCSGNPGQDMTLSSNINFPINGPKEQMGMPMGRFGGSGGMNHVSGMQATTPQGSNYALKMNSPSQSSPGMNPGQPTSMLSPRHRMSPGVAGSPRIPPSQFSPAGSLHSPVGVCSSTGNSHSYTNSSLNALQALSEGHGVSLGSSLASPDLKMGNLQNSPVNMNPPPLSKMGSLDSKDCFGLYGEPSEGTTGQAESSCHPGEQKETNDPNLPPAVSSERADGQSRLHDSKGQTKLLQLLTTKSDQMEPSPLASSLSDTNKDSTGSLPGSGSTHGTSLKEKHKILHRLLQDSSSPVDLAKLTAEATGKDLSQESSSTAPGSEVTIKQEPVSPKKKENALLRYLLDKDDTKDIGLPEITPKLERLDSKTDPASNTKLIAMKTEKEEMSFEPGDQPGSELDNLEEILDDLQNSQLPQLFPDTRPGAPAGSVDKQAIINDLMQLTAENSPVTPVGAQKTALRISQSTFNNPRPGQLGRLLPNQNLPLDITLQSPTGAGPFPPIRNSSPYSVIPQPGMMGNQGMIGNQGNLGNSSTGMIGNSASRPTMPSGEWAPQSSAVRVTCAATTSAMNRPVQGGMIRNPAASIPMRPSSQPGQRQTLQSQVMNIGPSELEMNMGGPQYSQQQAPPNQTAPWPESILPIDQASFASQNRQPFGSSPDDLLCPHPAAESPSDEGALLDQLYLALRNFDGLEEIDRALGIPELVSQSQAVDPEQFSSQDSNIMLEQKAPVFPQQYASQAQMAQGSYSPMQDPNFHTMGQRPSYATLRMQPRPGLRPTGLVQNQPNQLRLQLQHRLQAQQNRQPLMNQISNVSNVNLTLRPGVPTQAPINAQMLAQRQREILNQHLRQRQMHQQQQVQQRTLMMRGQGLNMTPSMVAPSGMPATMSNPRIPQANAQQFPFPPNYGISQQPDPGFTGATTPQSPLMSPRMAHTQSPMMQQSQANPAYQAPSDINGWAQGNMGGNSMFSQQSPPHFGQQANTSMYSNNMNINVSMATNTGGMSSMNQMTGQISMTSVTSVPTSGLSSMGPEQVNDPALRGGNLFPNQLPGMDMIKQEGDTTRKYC
structure (smiles),measurement,setting,value
COC(=O)c1[nH]c(C)c(C(=O)C2=C(O)C(=O)N(CCN(C)C)C2c2cccc(OC)c2OC)c1C (stereo not given),IC50,Coagulation factor XII,> 50 µM (inactive)
O=S(=O)(Nc1ccc(-c2csc(-c3ccccc3)n2)cc1)c1ccc(F)cc1,EC50,[1],2.05 µM (active)
same,EC50,Streptokinase A,8.48 µM (active)
same,EC50,[2],2.45 µM (active)
same,IC50,[3],8.02 µM (not active)
same,EC50,[4],> 60 µM (not active)
same,EC50,Streptococcus,5.63 µM (active)
O=C(Nc1cccnc1)c1sc(Nc2ccccc2F)nc1-c1ccccc1,EC50,[5],6.48 µM (active)
same,EC50,[6],28.3 µM (not active)
same,EC50,[7],6.83 µM (active)
CC1=NNC(=O)C1CCC(=O)N/N=C\c1ccc(Cl)c(Cl)c1 (stereo not given),IC50,Leucine aminopeptidase,15 µM (active)
Cn1c(SCC(=O)NCc2ccc3c(c2)OCO3)nnc1C1COc2ccccc2O1 (stereo not given),IC50,Leucine aminopeptidase,< 1 µM (active)
CN1CCN(C(=O)CSc2nc(-c3cccs3)cc(-c3cccs3)c2C#N)CC1,EC50,[8],10 µM (active)
same,EC50,[9],9.41 µM (active)
CCc1cc(=O)oc2c3c(cc(OCC(=O)NCCCC(=O)O)c12)OC(C)(C)CC3,AC50,Trypsin,7.16 µM (active)
same,AC50,CAAX prenyl protease 2,12.1 µM (active)
Cc1cc(N2CCCCC2)nc2ccc(NC(=O)c3ccc(Br)o3)cc12,IC50,[3],3.3 µM (not active)
COc1cc(/C=N/NC(=O)C2c3ccccc3Oc3ccccc32)ccc1O,IC50,[10],> 64 µM (inactive)
O=C(Nc1ccccc1)c1nnn(Cc2ccccc2)c1NC(=O)C(F)(F)F,EC50,[11],4.59 µM (active)
Cc1ccc(/C=N/NC(=O)c2nnn(-c3nonc3N)c2C(C)C)o1,AC50,CAAX prenyl protease 2,2.96 µM (active)
Cc1ccc(S(=O)(=O)c2nc(-c3ccccc3)oc2NCc2cccnc2)cc1,EC50,[11],8.55 µM (active)
Cc1c(C=O)c(C=O)c(C)n1Cc1ccccc1,CC50,[12],4.47 µM (active)
same,CC50,[13],6.52 µM (active)
COC(=O)c1c(NC(=O)CC2NCCNC2=O)sc2c1CCCC2 (stereo not given),CC50,[13],> 40 µM (active)
CC(=O)Nc1ccc(S(=O)(=O)n2cnc3cc(C)c(C)cc32)cc1,IC50,Prothrombin,> 50 µM (not active)
